Data published in patent US9150495B2, “Polyamine transporter selective compounds as anti cancer agents” (University of Central Florida Research Foundation, Inc., priority 2007, dated 2015).
Structures can show the parent of a compound that is named as a salt.

What was measured:
[1] = biological target: Topoisomerase IIalpha (Topo IIa) (Homo sapiens, UniProt P11388); assay: Topo II kDNA decatenation assay (agarose gel); format: biochemical
Description: Thus the linear polyamine-anthracene conjugates herein disclosed (e.g., compound 4) were evaluated as Topo II inhibitors. A well established in vitro Topo II assay (as used previously) allowed us to determine whether these new conjugates (previously described compound A and novel compound 4 of the present invention) have the ability to inhibit Topo II by preventing Topo IIa from decatenating (i.e., disentangling) kinetoplast DNA (kDNA).
A negative image of agarose gel electrophoresis is visualized under UV light. Drugs were incubated with kDNA (200 ng) and Topo IIa (4 units) in reaction buffer prior to loading onto the gel. Neg. Control (−): kDNA only; Pos. Control (+): kDNA+Topo II (without conjugate); Inhibitory Control (B, rightmost lane): Berenil (50 μM). All other lanes contain the corresponding conjugate at the listed μM concentrations. Positive Topo II activity is shown by the formation of nicked open circular (NOC) DNA (middle band) and covalently closed circular (CCC) DNA (bottom band). Inhibition is shown by the negative activity of Topo II where kDNA (top band) is not decatenated and remains in the well.
When kDNA was not incubated with drug and Topo II (negative control), no migration occurred on the gel and the kDNA remained in the well as expected, which was indicated by the single top band visualized in the well. When kDNA was incubated with Topo II in the absence of drug, the top band in the well disappeared completely while two bands representing the two decatenated products could be seen.

[2] = system: CHO-MG cells; assay: CHO-MG cytotoxicity (PAT-deficient mutant cells); format: cell-based, Chinese hamster; details: Cricetulus griseus, no PAT activity, read-out: CHOMG IC50
Description: Chinese hamster ovary cells which are chemically mutated to be polyamine transport-deficient will be referred to as the CHO-MG cell line. […] The PAT targeting selectivity was determined using a Chinese hamster cell assay. The CHO wild type cells have active polyamine transport activity and therefore should be very susceptible to the polyamine conjugate and give low IC50 values. […] The lower the value the more cytotoxic the drug is to that cell type. In contrast, the mutant CHO-MG cells, which have no PAT activity are not as sensitive to the polyamine conjugate (which is unable to enter these cells via the defective PAT) and give higher IC50 values. We express these as a ratio of the IC50 value in CHOMG/IC50 value in CHO. The higher the ratio the more PAT selective is the polyamine conjugate drug. […] Cytotoxicity experiments were also performed in murine leukemia cells (L1210, Table 3) with and without the presence of difluoromethylornithine (DFMO), a known inhibitor of ornithine decarboxylase (the enzyme responsible for polyamine biosynthesis). Typically, when one blocks the ability of cells to synthesize polyamines, the cells respond by increasing their import of extracellular polyamines via PAT. Therefore, if our drugs are PAT-selective we should see a lowering of their respective IC50 values in the presence of DFMO, a molecule which facilitates the drug's import. […] Ki values indicate the binding affinity of the compounds for the PAT. Using competition experiments with radiolabeled spermidine, we were able to rank the binding affinity of the compounds for the PAT. Low Ki values mean the compound has a high binding affinity for the PAT.

[3] = system: CHO cells; assay: CHO wild type cytotoxicity (active polyamine transport); format: cell-based, Chinese hamster; details: for IC50: Cricetulus griseus, CHO wild type cells, active PAT; for CHOMG/CHO IC50 Ratio: IC50 in CHOMG / IC50 in CHO, PAT selectivity
Description: Chinese hamster ovary cells (CHO cells) have an active polyamine transporter. This cell type is very susceptible to drugs which use the polyamine transporter system to gain access to cells (i.e. polyamine conjugates). The PAT targeting selectivity was determined using a Chinese hamster cell assay. The CHO wild type cells have active polyamine transport activity and therefore should be very susceptible to the polyamine conjugate and give low IC50 values. […] The lower the value the more cytotoxic the drug is to that cell type. In contrast, the mutant CHO-MG cells, which have no PAT activity are not as sensitive to the polyamine conjugate (which is unable to enter these cells via the defective PAT) and give higher IC50 values. We express these as a ratio of the IC50 value in CHOMG/IC50 value in CHO. The higher the ratio the more PAT selective is the polyamine conjugate drug. […] Cytotoxicity experiments were also performed in murine leukemia cells (L1210, Table 3) with and without the presence of difluoromethylornithine (DFMO), a known inhibitor of ornithine decarboxylase (the enzyme responsible for polyamine biosynthesis). Typically, when one blocks the ability of cells to synthesize polyamines, the cells respond by increasing their import of extracellular polyamines via PAT. Therefore, if our drugs are PAT-selective we should see a lowering of their respective IC50 values in the presence of DFMO, a molecule which facilitates the drug's import. […] Ki values indicate the binding affinity of the compounds for the PAT. Using competition experiments with radiolabeled spermidine, we were able to rank the binding affinity of the compounds for the PAT. Low Ki values mean the compound has a high binding affinity for the PAT.

[4] = biological target: polyamine transporter (PAT); assay: PAT binding affinity, competition with radiolabeled spermidine in L1210; design: species or system mouse; details: L1210 cells
Description: “Ki value” reflects the affinity of the drug architecture for the polyamine transporter. The lower the value of the Ki, the higher the affinity of the drug for the polyamine transporter.
(§1) Cytotoxicity experiments were also performed in murine leukemia cells (L1210, Table 3) with and without the presence of difluoromethylornithine (DFMO), a known inhibitor of ornithine decarboxylase (the enzyme responsible for polyamine biosynthesis). Typically, when one blocks the ability of cells to synthesize polyamines, the cells respond by increasing their import of extracellular polyamines via PAT. Therefore, if our drugs are PAT-selective we should see a lowering of their respective IC50 values in the presence of DFMO, a molecule which facilitates the drug's import. […] Ki values indicate the binding affinity of the compounds for the PAT. Using competition experiments with radiolabeled spermidine, we were able to rank the binding affinity of the compounds for the PAT. Low Ki values mean the compound has a high binding affinity for the PAT.

[5] = system: L1210 cells; assay: L1210 cytotoxicity; format: cell-based; details: Mus musculus, without DFMO
Description: (§2) L1210 cells are mouse leukemia cells and are a standard well used benchmark for evaluating cytotoxicity of new drug systems, especially polyamine containing drugs.
as §1

[6] = system: L1210 cells; assay: L1210 cytotoxicity in presence of DFMO; format: cell-based, mouse; details: in the presence of DFMO
Description: as §2, §1

Chain of Topoisomerase IIalpha (Topo IIa) (P11388 whole entry): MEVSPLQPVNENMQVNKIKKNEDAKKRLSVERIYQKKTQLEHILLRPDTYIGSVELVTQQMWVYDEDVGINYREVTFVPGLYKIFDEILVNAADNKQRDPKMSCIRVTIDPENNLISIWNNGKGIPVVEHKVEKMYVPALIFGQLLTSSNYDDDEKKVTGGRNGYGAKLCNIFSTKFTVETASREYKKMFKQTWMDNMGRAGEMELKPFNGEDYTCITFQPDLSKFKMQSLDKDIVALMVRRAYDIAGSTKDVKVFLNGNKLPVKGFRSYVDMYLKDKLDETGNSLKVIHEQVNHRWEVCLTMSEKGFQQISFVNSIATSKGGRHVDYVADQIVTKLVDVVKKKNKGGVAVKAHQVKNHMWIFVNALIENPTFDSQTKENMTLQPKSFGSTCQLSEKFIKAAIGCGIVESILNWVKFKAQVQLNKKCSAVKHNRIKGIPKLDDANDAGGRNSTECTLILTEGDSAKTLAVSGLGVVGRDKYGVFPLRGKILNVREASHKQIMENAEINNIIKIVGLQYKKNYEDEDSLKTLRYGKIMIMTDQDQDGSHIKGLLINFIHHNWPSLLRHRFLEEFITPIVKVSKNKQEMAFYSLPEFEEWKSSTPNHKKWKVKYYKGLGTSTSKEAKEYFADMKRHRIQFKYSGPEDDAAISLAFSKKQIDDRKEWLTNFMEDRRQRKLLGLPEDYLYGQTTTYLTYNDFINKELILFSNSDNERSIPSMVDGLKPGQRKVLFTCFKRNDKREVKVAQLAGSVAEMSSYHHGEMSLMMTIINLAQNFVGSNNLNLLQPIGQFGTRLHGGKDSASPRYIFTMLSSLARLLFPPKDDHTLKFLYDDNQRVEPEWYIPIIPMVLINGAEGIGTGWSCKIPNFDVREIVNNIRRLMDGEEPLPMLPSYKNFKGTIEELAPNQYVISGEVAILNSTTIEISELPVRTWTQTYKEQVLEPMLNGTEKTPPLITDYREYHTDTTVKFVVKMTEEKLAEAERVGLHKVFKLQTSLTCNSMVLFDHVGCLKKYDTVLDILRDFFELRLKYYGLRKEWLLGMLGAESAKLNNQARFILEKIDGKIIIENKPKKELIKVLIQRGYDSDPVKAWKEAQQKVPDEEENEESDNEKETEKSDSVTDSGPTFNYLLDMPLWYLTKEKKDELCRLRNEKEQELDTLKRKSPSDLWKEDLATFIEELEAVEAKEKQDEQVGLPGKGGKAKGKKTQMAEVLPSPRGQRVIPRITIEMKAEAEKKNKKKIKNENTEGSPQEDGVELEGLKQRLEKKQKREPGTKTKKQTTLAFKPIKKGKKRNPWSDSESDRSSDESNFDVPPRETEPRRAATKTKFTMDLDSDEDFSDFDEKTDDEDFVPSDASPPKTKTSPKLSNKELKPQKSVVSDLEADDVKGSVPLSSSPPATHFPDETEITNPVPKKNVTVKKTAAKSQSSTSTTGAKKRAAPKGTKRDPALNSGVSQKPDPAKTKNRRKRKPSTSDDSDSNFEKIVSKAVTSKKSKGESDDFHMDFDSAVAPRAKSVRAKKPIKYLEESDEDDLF

| SMILES | Topo II inhibition (kDNA remaining in well) ([1]; 50 μM, inhibitory control) | IC50 [2] | IC50 [3] | CHOMG/CHO IC50 Ratio ([3]; Hydrochloride salt) | Ki [4] | IC50 [5] | IC50 ([6]; Mus musculus, L1210) | Topo II inhibition (kDNA remaining undecatenated) ([1]; 5 μM, kDNA 200 ng, Topo IIa 4 units) | Type of Topo II inhibition ([1]; inhibition increased with drug concentration) | CHOMG/CHO IC50 Ratio [3] | IC50 [6] |
| --- | --- | --- | --- | --- | --- | --- | --- | --- | --- | --- | --- |
| CC(=O)NCC(=O)O.CC(=O)NCC(=O)O.N=C(N)c1ccc(N=NNc2ccc(C(=N)N)cc2)cc1 [Berenil, reference compound] | good inhibition |  |  |  |  |  |  |  |  |  |  |
| Cl.NCCCCNCCCCNCc1c2ccccc2c(CNCCCCNCCCCN)c2ccccc12 [Compound 4, N-(4-Amino-butyl)-N′-(10-{[4-(4-amino-butylamino)-butylamino]-methyl}-anthracen-9-ylmethyl)-butane-1,4-diamine, Hydrochloride salt] |  | > 100 µM | 0.045 ± 0.003 µM | >2222 | 0.39 ± 0.05 µM | 0.78 ± 0.07 µM | 0.22 ± 0.08 µM | good inhibition | catalytic Topo-II inhibitors |  |  |
| Cl.NCCCCNCCCCNCc1ccc(CNCCCCNCCCCN)c2ccccc12 [Compound 7, N-(4-Amino-butyl)-N′-(4-{[4-(4-amino-butylamino)-butylamino]-methyl}-naphthalen-1-ylmethyl)-butane-1,4-diamine, Hydrochloride salt] |  | > 100 µM | 0.12 ± 0.03 µM |  | 0.17 ± 0.02 µM | 0.25 ± 0.08 µM |  |  |  | >833 |  |
| Cl.NCCCCNCCCCNCc1ccc(CNCCCCNCCCCN)cc1 [Compound 10, N-(4-Amino-butyl)-N′-(4-{[4-(4-amino-butylamino)-butylamino]-methyl}-benzyl)-butane-1,4-diamine, Hydrochloride salt] |  | 50.2 ± 3.8 µM | 0.074 ± 0.01 µM |  | 0.52 ± 0.11 µM | 0.16 ± 0.01 µM | 0.36 ± 0.03 µM |  |  | 677 |  |
| NCCCCNCCCCNCc1cc(CNCCCCNCCCCN)cc(CN(CCCCN)CCCCN)c1 [Compound 15, N-(4-Amino-butyl)-N-(3,5-bis-{[4-(4-amino-butylamino)-butylamino]-methyl}-benzyl)-butane-1,4-diamine, nona-Hydrochloride Salt] |  | > 500 µM | > 500 µM |  | 0.49 ± 0.02 µM | 122 ± 8.1 µM |  |  |  |  | 49.3 ± 10 µM |
